The results in this text go back to patent publication US20180280504A1, “GLYCAN-INTERACTING COMPOUNDS AND METHODS OF USE” (SIAMAB THERAPEUTICS, INC., priority 2014, published 2018).

Data set [1] can be described thus: E3-STn allograft model, average weight of mice. It is filed as in vivo, mouse.
Experimental: Balb/c mice were used as part of the test system. 50 female mice were inoculated with E3-STn cells to cause STn-expressing tumor formation. Mice were maintained under pathogen-free conditions with irradiated feed and autoclaved water.
The average weight of mice in each treatment group was also determined on days 1, 4, 6, 8, 11, 13, 15, 18, 20, 22, 26, 27, 29, 32, 34, 36, 39 and 41 following the first administration of each test article (see the following Table). The percent gain or loss over initial weight values is listed in parentheses.
A short description of data set [2]: PAA-glycan ELISA, GcSTn-PAA. It is filed as binding. Particulars: 200 ng/well PAA antigen; 1:5 dilutions from 1 μM. Here is the method:
(§1) 18D2 and 18C7 antibodies were further characterized by ELISA comprising antigens other than BSM. ELISAs were carried out according to Example 2, with the exception that ELISA plates were coated with biotinylated polyacrylamide (PAA) particles comprising either AcSTn (AcSTn-PAA), GcSTn (GcSTn-PAA) or Tn (Tn-PAA) as antigens. These particles present the antigens in a multivalent format. Briefly, 96-well ELISA plates were coated with 200 ng/well of each PAA antigen and blocked with PBS with 1% OVA. Antibodies were serially diluted at 1:5 in PBS with 1% OVA using an initial concentration of 1 μM. After blocking, antibodies were added to the plates and plates were incubated for 1.5 hours at room temperature. Binding of anti-STn antibodies was detected using a goat anti-mouse IgG-HRP conjugated antibody (Jackson Immunoresearch Laboratories, West Grove, Pa.). The reaction was developed by addition of HRP substrate and hydrogen peroxide. The reaction was then stopped by the addition of sulfuric acid (1.6 M). Optical densities were measured at 490 nm. A dose-response curve was generated using readings at each concentration tested and a non-linear regression curve was generated with four-parameter modeling to determine EC50 values for each antibody.

In data set [3] the test system is ST6GalNAc 1 transfected MDA-MB-231 cells (MDA-STn+). The experiment in a line: Flow cytometry-based analysis of antibody binding, STn+ cells. Set-up: species or system human. As to conditions: ST6GalNAc 1 transfected MDA-MB-231 cells; APC anti-mouse IgG. Here is the method: Flow cytometry-based analysis is carried out to elucidate the curve-dose response for binding of antibodies to cell surface antigens. For these analyses, three cell lines are employed.
MDA-MB-231 cells are human breast cancer cells. They are grown in Earle's Minimum Essential Medium supplemented with 10% fetal calf serum (FCS), 100 μg/ml penicillin, 100 UI/ml streptomycin and 45 μg/ml gentamycin. MCF-7 cells are also human breast cancer cells and are grown under the same conditions as MDA-MB-231 cells. Stably transfected versions of MDA-MB-231 and MCF-7 cells (clone TAH3.P10 for MDA-MB-231 cells and clone A12.1 for MCF-7 cells) that over express GalNAc α2,6-sialyltransferase (ST6GalNAc 1,) are also cultured under the same conditions with the exception of an added 1 mg/ml of G418 to support cells expressing the transgene. ST6GalNAc 1 is an enzme capable of sialylating GalNAc. As a result of over expression, transfected cells express high levels of Neu5Ac-STn (see Julien, S. et al., Glycoconjugate journal. 2001. 18, 883-93; the contents of which are herein incorporated by reference in their entirety). E3 cells are murine breast cancer cells. They are cultured in Dulbecco's E4 medium with 10% FCS. Stably transfected versions of E3 cells expressing high levels of Neu5Gc-STn (E3-STn) are cultured with 600 μg/ml of G418 and 200 μg/ml hygromycin. During growth and maintenance of experimental cells, trypsin is not used for cell passaging.
For analysis, cells are harvested using StemPro Accutase (Life Technologies, Carlsbad, Calif.) and washed with PBS comprising 5% FBS before pelleting by light centrifugation. Cell numbers and viability are determined by trypan blue dye exclusion analysis and cell concentrations are adjusted to 5×10^6 cells/ml in PBS with 5% FBS. 50 μl of cells are added to each well of an assay plate. Cells are combined with 50 μl solutions of antibody being analyzed or control antibodies and incubated for 1 hour at 4° C. Cells are washed and pelleted twice with PBS with 5% FBS before being treated with 100 μl of PBS with 5% FBS comprising a 1:1,500 dilution of anti-mouse IgG (Southern Biotech, Birmingham, Ala.,) conjugated to allophycocyanin (APC). Cells are incubated for 30 min at 4° C. before washing and resuspending in 200 μl of propidium iodide (PI) diluted 1:1000 in PBS with 5% FBS. Treated cells are then subjects to flow cytometry analysis and 10,000 events are acquired for each sample.

Data set [4] is described as follows: PAA-glycan ELISA, AcSTn-PAA. It is filed as binding. Particulars: 200 ng/well PAA antigen; 1:5 dilutions from 1 μM. Here is the method:
as §1

Consider `CC(=O)O[C@H]1C(=O)[C@@]2(C)[C@H]([C@H](OC(=O)c3ccccc3)[C@]3(O)C[C@H](OC(=O)[C@H](O)[C@@H](NC(=O)c4ccccc4)c4ccccc4)C(C)=C1C3(C)C)[C@]1(OC(C)=O)CO[C@@H]1C[C@@H]2O` [Paclitaxel, reference compound], for which the “Average Weight” value in data set [1] (day 1 of study) was 16.7 g; in data set [1] (day 4 of study), 16.5 g; in data set [1] (day 6 of study), 17 g; in data set [1] (day 8 of study), 17.3 g; in data set [1] (day 11 of study), 17.1 g; in data set [1] (day 13 of study) it was 17.4 g. Moreover, the “Average Weight” value in data set [1] (day 15 of study) amounted to 17.8 g; in data set [1] (day 18 of study) it was 17.6 g; in data set [1] (day 20 of study), 17.8 g; in data set [1] (day 22 of study), 17.9 g; in data set [1] (day 26 of study), 18.3 g; in data set [1] (day 27 of study), 18.5 g. Besides, the “Average Weight” value is 18.9 g in data set [1] (day 29 of study); 18.9 g in data set [1] (day 32 of study); 19.2 g in data set [1] (day 34 of study); 18.5 g in data set [1] (day 36 of study); 19.1 g in data set [1] (day 39 of study); 19.2 g in data set [1] (day 41 of study).

B1: 3F1: commercially available mouse anti-STn monoclonal antibody (SBH Sciences), IgG1; VH SEQ ID NO: 59, VL SEQ ID NO: 60 (antibody, V domains shown)
VH: QVQLQQSDAELVKPGASVKISCKASGYTFTDHAIHWVKQKPEQGLDWIGYISPGNGDIKYNEKFKDKVTLTADKSSSTACMHLNSLTSEDSAVYFCKRSLLALDYWGQGTTLTVSS
VL: DIVMTQSHKFMSTSVGDRVSITCKASQDVGTNIAWYQQKPGRSPKVLIYSASTRHTGVPDRFTGSGSGTDFTLTISNVQSEDLTDYFCQQYSSFPLTFGVGTKLELK
For B1, the EC50 in data set [2] amounted to 73.2 nM; in data set [4], 152 nM. Further, the “EC50, flow cytometry binding to cell-associated STn” value in data set [3] is 2.42 nM.
